This is an account of results in US12134759B2, “Glomerulus on a chip to recapitulate glomerular filtration barrier” (Children's Hospital Los Angeles, priority 2019, dated 2024).

Entries after “also recorded” stand apart in the source; their conditions may differ. No end group written: not given here.

For data set [1], the system named is GOAC (human podocytes + hGEC glomerular filtration barrier). The data set is described as follows: Albumin permselectivity assay on the GOAC after puromycin aminonucleoside (PAN) injury. The format is cell-based. Particulars: PAN 5 days (10 μg/ml, 10 mg/ml elsewhere in the source); albumin-FITC 40 mg/ml; hAKPC-P+hGEC, hiPOD+hGEC, hpPOD+hGEC chips. The protocol:
(§1) An albumin and inulin permeability assay were established to evaluate the efficiency of the created GFB. The number of chips used for each experiment is described in the corresponding figure legend. Media was aspirated from the bottom inlet and outlet, to which PBS was added. Then, media from the top inlet and outlet was aspirated. Fifty microliters albumin-FITC (Millipore Sigma, c #A9771) or inulin-FITC (10 mg/ml, Sigma, c #F3272) was added to the top inlet and outlet, such that the orientation of filtration would be simulated as in native blood flow: from endothelial cells, through podocytes, and into the urinary space of Bowman's capsule. […] Absorbance was measured using the Perkin Elmer Victor 3 plate reader using Wallac 1420 workstation software (fluorescein 485/535, 0.1 s). For long-term studies, the same chips were evaluated for permselectivity at respectively 1, 2, 3, and 4 weeks (hAKPC and hpPOD; hiPOD were evaluated for weeks 1 and 2 since after this time frame these chips are not properly functioning) after hGEC seeding. […] After each reading, as described above, the albumin-FITC solution and PBS were removed from the top and bottom inlets and outlets and chips were carefully rinsed with PBS twice to remove excess albumin-FITC before returning to fresh culture medium. […] Efficiency at each time point is expressed as %±SEM. […]

A further data set has as its system podocytes in GOAC. The data set is described as follows: F-actin staining of podocytes in the GOAC before and after PAN damage. The format is cell-based, human. Particulars: after PAN damage; hAKPC-P+hGEC, hiPOD+hGEC, hpPOD+hGEC chips. The protocol:
Immunofluorescent staining was performed on OrganoPlate™ and chamber slides of representative cell types: following fixation by 4% paraformaldehyde (Santa Cruz Biotechnology c #sc-281692) and serial washes with PBS. Chips/wells of interest were prepared for staining by blocking with 5% bovine serum albumin (Jackson ImmunoResearch Lab, c #001-000-162) in PBS for 30 min. Primary, secondary, and pre-conjugated antibodies were diluted in 2.5% BSA Jackson ImmunoResearch Lab. c #001-000-162) as indicated in Table 1. Thirty microliters of solution were added to the top and bottom inlets and outlets of the chips or 100 μl of solution was added directly into the chamber slide wells. Primary antibodies were incubated at RT for 1 h; following serial washes, secondary antibodies were incubated at RT for 30 min. After a final series of washes in PBS, DAPI was applied (1:1000 in PBS; BD Pharmingen, c #564907) and the OrganoPlate™ or the wells were stored at 4° C. until imaged by confocal microscopy (Zeiss 710 microscope) and processed using the ZEN10 software.
In all, 10 μg/ml of PAN, a nephrotoxic molecule (Cayman Chemical c #15509), was supplemented to the media for 5 days. Media without PAN was used as a control. […] After PAN injury, damage was assessed using the albumin assay performed on the chip as described above.

Another data set concerns hAKPC-P+hGEC GOAC. In words: α-MSH drug rescue of MN serum effect, albumin permselectivity assay. The format is cell-based, human. To be noted: 10 ng/ml α-MSH with 0.5% MN serum (MN3), 24 h; filtrate at 60 min. The protocol:
as §1

Turning to `CN(C)c1ncnc2c1ncn2[C@@H]1O[C@H](CO)[C@@H](N)[C@H]1O` [PAN, puromycin aminonucleoside], the “albumin permselectivity / albumin leakage (fluorescein absorbance in filtrate after 60 min)” value in data set [1] was “loss of permselectivity for albumin; also recorded: marked and statistically significant increase”. Further, the “podocyte cytoskeleton (F-actin staining)” value with podocytes in GOAC is “cytoskeleton rearrangement; also recorded: widespread disruption of the cytoskeleton”.

With “α-Melanocyte-stimulating hormone (SYSMEHFRWGKPV; ends and bridges not checked; UniProt P01189 138-150, looked up) [α-MSH]”, the “proteinuria (albumin-FITC leakage) elicited by MN serum” value in the data set with hAKPC-P+hGEC GOAC was “prevented proteinuria elicited by MN serum; also recorded: prevented the proteinuric effects of MN sera”.
